Values after ≈ are worked out from the molar mass of the structure shown. Where two headings read alike, the source gives them in different places. Positions of bridges follow the written chain, without caps; N, C: chain ends. Non-standard residues stand in square brackets, D forms with d. Residues, ends and D or L forms follow the SMILES beside them. Phe(4-tBu) = CC(C)(C)c1ccc(C[C@H](N)C(=O)O)cc1; S5 = C=CCCC[C@](C)(N)C(=O)O; Dap = NC[C@H](N)C(=O)O
How the values were obtained:
in vitro [1] = format: cell-based; conditions: human
How it was run: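 HepG2 cells in EMEM with 10% FBS, allowed 4 h to attach, then exposed to serial dilutions of StAMPs (from a 5 mg/mL water stock) or vehicle. After 48 h at 37 °C, viability read by CellTiter-Glo luminescence.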

P. aeruginosa = format: cell-based, Pseudomonas aeruginosa
How it was run: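 Broth microdilution adapted from CLSI in MHB or cation-adjusted MHB; log-phase P. aeruginosa at 5×10^5 CFU/ml final with serially diluted stapled peptides. Incubated 20-24 h at 37 °C; MIC is the lowest concentration without visible growth.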

S. aureus = format: cell-based, Staphylococcus aureus
How it was run: (§1)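 StAMP peptides were tested by CLSI-adapted broth microdilution in MHB or cation-adjusted MHB II, final inoculum 5×10^5 CFU/ml from log-phase cultures. After 20-24 h at 37° C, MIC was taken as the lowest peptide concentration without visible growth.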

K. pneumoniae = format: cell-based, Klebsiella pneumoniae
How it was run: as §1

E. coli = format: cell-based, Escherichia coli
How it was run: as §1

in vitro [2] = format: cell-based; conditions: human; remark: listed apart in the source
How it was run: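 RPTEC or HepG2 cells plated overnight, given fresh media, then serial StAMP dilutions (from 5 mg/mL water stock) or vehicle at 37 °C. Cytotoxicity read as LDH release into media, absorbance 490 nm; renal toxicity after 90 min, liver toxicity after 48 h incubation.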

A. baumannii = format: cell-based, Acinetobacter baumannii
How it was run: as §1

[3] = Inhibitory Concentration at 50% Cytotoxicity (IC50) Human Liver Cells (HepG2)

Row | SMILES | IC50 at 48 hours (in vitro [1]; 48 hours of incubation, read-out: Inhibitory Concentration at 50% Cytotoxicity (IC50) Human Liver Cells (HepG2)) [µg/mL] | Minimum Inhibitory Concentration (MIC) P. aeruginosa (P. aeruginosa) [µg/mL] | Minimum Inhibitory Concentration (MIC) S. aureus (S. aureus) [µg/mL] | Minimum Inhibitory Concentration (MIC) K. pneumoniae (K. pneumoniae) [µg/mL] | Minimum Inhibitory Concentration (MIC) E. coli (E. coli) [µg/mL] | IC50 at 90 min (in vitro [2]; 90 minutes of incubation, read-out: Inhibitory Concentration at 50% Cytotoxicity (IC50) Human Renal Proximal Tubule Epithelial Cells (RPTEC)) [µg/mL] | Minimum Inhibitory Concentration (MIC) A. baumannii (A. baumannii) [µg/mL] | IC50 at 48 hours (in vitro [1]; [3]) [µg/mL] | IC50 at 90 min (in vitro [2]) [µg/mL]
1 | CC(C)[C@@H]1NC(=O)[C@@](C)(NC(=O)[C@H](C)NC(=O)[C@H](CCCCN)NC(=O)CNC(=O)[C@H](Cc2ccccc2)NC(=O)[C@H](CCCCN)NC(=O)[C@H](CCCCN)NC(=O)[C@H](CCCCN)NC(=O)[C@H](CCCCN)NC(=O)[C@H](CCCCN)NC(=O)[C@]2(C)CCCC=CCCC[C@](C)(NC(=O)CN)C(=O)NCC(=O)N[C@@H](CCCCN)C(=O)N[C@@H](Cc3ccccc3)C(=O)N2)CCCC=CCCC[C@@](C)(C(=O)N[C@@H](C)C(=O)N[C@@H](CCCCN)C(=O)N[C@@H](CCCCN)C(=O)NCC(=O)NCC(=O)N[C@@H](CCC(=O)O)C(N)=O)NC(=O)[C@H](CCC(=O)O)NC(=O)[C@@H](Cc2ccccc2)NC1=O [compound 34] (H-G[S5]GKF[S5]KKKKKFGKA[S5]V[dF]E[S5]AKKGGE-NH2; staple 2-6, 16-20) | 109 (≈ 37.6 µM) | 4 | >64 | 2 | 2 | 96 (≈ 33.1 µM) | 2 | – | –
2 | CC(C)[C@@H]1NC(=O)[C@@](C)(NC(=O)[C@H](C)NC(=O)[C@H](CCCCN)NC(=O)CNC(=O)[C@H](Cc2ccccc2)NC(=O)[C@H](CCCCN)NC(=O)[C@H](CCCCN)NC(=O)[C@H](CCCCN)NC(=O)[C@H](CCCCN)NC(=O)[C@H](CCCCN)NC(=O)[C@]2(C)CCCC=CCCC[C@](C)(NC(=O)CN)C(=O)NCC(=O)N[C@@H](CCCCN)C(=O)N[C@@H](Cc3ccccc3)C(=O)N2)CCCC=CCCC[C@@](C)(C(=O)N[C@@H](C)C(=O)N[C@@H](CCCCN)C(=O)N[C@@H](CCCCN)C(=O)NCC(=O)NCC(=O)N[C@@H](CCC(=O)O)C(N)=O)NC(=O)[C@H](CCC(=O)O)NC(=O)[C@H](Cc2ccc(C(C)(C)C)cc2)NC1=O [compound 36] (H-G[S5]GKF[S5]KKKKKFGKA[S5]V[Phe(4-tBu)]E[S5]AKKGGE-NH2; staple 2-6, 16-20) | – | 4 | 64 | 2 | 2 | – | 2 | > 200 | 96 (≈ 32.5 µM)
3 | CC(C)[C@@H]1NC(=O)[C@@](C)(NC(=O)[C@H](CCCCN)NC(=O)[C@H](CCCCN)NC(=O)[C@H](CCCCN)NC(=O)[C@H](CCCCN)NC(=O)[C@H](CCCCN)NC(=O)[C@]2(C)CCCC=CCCC[C@](C)(NC(=O)CN)C(=O)NCC(=O)N[C@@H](CCCCN)C(=O)N[C@@H](Cc3ccccc3)C(=O)N2)CCCC=CCCC[C@@](C)(C(=O)N[C@@H](C)C(=O)N[C@@H](CCCCN)C(=O)N[C@@H](CCCCN)C(N)=O)NC(=O)[C@H](CCC(=O)O)NC(=O)CNC1=O [compound 70] (H-G[S5]GKF[S5]KKKKK[S5]VGE[S5]AKK-NH2; staple 2-6, 12-16) | – | 4 | >64 | 4 | 4 | – | 16 | 102 (≈ 47.2 µM) | 125 (≈ 57.8 µM)
4 | CC(C)[C@@H]1NC(=O)[C@@](C)(NC(=O)[C@H](C)NC(=O)[C@H](CCCCN)NC(=O)CNC(=O)[C@H](Cc2ccccc2)NC(=O)[C@H](CCCCN)NC(=O)[C@H](CCCCN)NC(=O)[C@H](CCCCN)NC(=O)[C@H](CO)NC(=O)[C@H](Cc2c[nH]cn2)NC(=O)[C@]2(C)CCCC=CCCC[C@](C)(NC(=O)CN)C(=O)NCC(=O)N[C@@H](CCCCN)C(=O)N[C@@H](Cc3ccccc3)C(=O)N2)CCCC=CCCC[C@@](C)(C(=O)N[C@@H](C)C(=O)N[C@@H](CCCCN)C(=O)N[C@@H](CCCCN)C(N)=O)NC(=O)[C@H](CCC(=O)O)NC(=O)[C@H](Cc2ccccc2)NC1=O [compound 14] (H-G[S5]GKF[S5]HSKKKFGKA[S5]VFE[S5]AKK-NH2; staple 2-6, 16-20) | – | 4 | >64 | 4 | 2 | – | 2 | 222 (≈ 84.7 µM) | 214 (≈ 81.6 µM)
5 | CC(C)[C@@H]1NC(=O)[C@@](C)(NC(=O)[C@H](C)NC(=O)[C@H](CCCCN)NC(=O)CNC(=O)[C@H](Cc2ccccc2)NC(=O)[C@H](CCCCN)NC(=O)[C@H](CCCCN)NC(=O)[C@H](CCCCN)NC(=O)[C@H](CO)NC(=O)[C@H](Cc2c[nH]cn2)NC(=O)[C@]2(C)CCCC=CCCC[C@](C)(NC(=O)CN)C(=O)NCC(=O)N[C@@H](CCCCN)C(=O)N[C@@H](Cc3ccccc3)C(=O)N2)CCCC=CCCC[C@@](C)(C(=O)N[C@@H](C)C(=O)N[C@@H](CCCCN)C(=O)N[C@@H](CCCCN)C(N)=O)NC(=O)[C@H](CCC(=O)O)NC(=O)[C@H](Cc2ccc(O)cc2)NC1=O [compound 13] (H-G[S5]GKF[S5]HSKKKFGKA[S5]VYE[S5]AKK-NH2; staple 2-6, 16-20) | – | 4 | >64 | 8 | 3 | – | 2 | > 200 | > 200
6 | CC(C)[C@@H]1NC(=O)[C@@](C)(NC(=O)[C@H](C)NC(=O)[C@H](CCCCN)NC(=O)CNC(=O)[C@H](Cc2c[nH]c3ccccc23)NC(=O)[C@H](CCCCN)NC(=O)[C@H](CCCCN)NC(=O)[C@H](CCCCN)NC(=O)[C@H](CO)NC(=O)[C@H](Cc2c[nH]cn2)NC(=O)[C@]2(C)CCCC=CCCC[C@](C)(NC(=O)CN)C(=O)NCC(=O)N[C@@H](CCCCN)C(=O)N[C@@H](Cc3ccccc3)C(=O)N2)CCCC=CCCC[C@@](C)(C(=O)N[C@@H](C)C(=O)N[C@@H](CCCCN)C(=O)N[C@@H](CCCCN)C(N)=O)NC(=O)[C@H](CCC(=O)O)NC(=O)CNC1=O [compound 68] (H-G[S5]GKF[S5]HSKKKWGKA[S5]VGE[S5]AKK-NH2; staple 2-6, 16-20) | – | 8 | >64 | 16 | 4 | – | 4 | 129 (≈ 50.2 µM) | 117 (≈ 45.5 µM)
7 | CC(C)[C@@H]1NC(=O)[C@H](C(C)C)NC(=O)[C@@](C)(NC(=O)[C@H](C)NC(=O)[C@H](CCCCN)NC(=O)CNC(=O)[C@H](Cc2ccccc2)NC(=O)[C@H](CCCCN)NC(=O)[C@H](CCCCN)NC(=O)[C@H](CCCCN)NC(=O)[C@H](CCCCN)NC(=O)[C@H](Cc2c[nH]cn2)NC(=O)[C@]2(C)CCCC=CCCC[C@](C)(NC(=O)CN)C(=O)NCC(=O)N[C@@H](CCCCN)C(=O)N[C@@H](Cc3ccccc3)C(=O)N2)CCCC=CCCC[C@@](C)(C(=O)N[C@@H](C)C(=O)N[C@@H](CCCCN)C(=O)N[C@@H](CCCCN)C(N)=O)NC(=O)[C@H](CCC(=O)O)NC1=O [compound 21] (H-G[S5]GKF[S5]HKKKKFGKA[S5]VVE[S5]AKK-NH2; staple 2-6, 16-20) | – | 4 | >64 | 4 | 2 | – | 2 | 208 (≈ 79.5 µM) | 251 (≈ 96 µM)
8 | CC(C)[C@@H]1NC(=O)[C@@](C)(NC(=O)[C@H](C)NC(=O)[C@H](CN)NC(=O)CNC(=O)[C@H](Cc2ccccc2)NC(=O)[C@H](CN)NC(=O)[C@H](CN)NC(=O)[C@H](CN)NC(=O)[C@H](CN)NC(=O)[C@H](CN)NC(=O)[C@]2(C)CCCC=CCCC[C@](C)(NC(=O)CN)C(=O)NCC(=O)N[C@@H](CN)C(=O)N[C@@H](Cc3ccccc3)C(=O)N2)CCCC=CCCC[C@@](C)(C(=O)N[C@@H](C)C(=O)N[C@@H](CN)C(=O)N[C@@H](CN)C(N)=O)NC(=O)[C@H](CCC(=O)O)NC(=O)CNC1=O [compound 25] (H-G[S5]G[Dap]F[S5][Dap][Dap][Dap][Dap][Dap]FG[Dap]A[S5]VGE[S5]A[Dap][Dap]-NH2; staple 2-6, 16-20) | – | 4 | >64 | 16 | 4 | – | 32 | > 200 | > 800
